Laboratory results reported in PubChem BioAssay (NCI).
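Five concentrations, 48 hours, 96-well plates. Definition used: TGI = concentration required for complete inhibition of growth.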

Tests used:
Experiment in all cases: growth of human tumour cells (NCI), 48 h
[1] = system: HOP-62 NSCLC
[2] = system: K-562 leukemia
[3] = system: LXFL 529 NSCLC
[4] = system: RXF 393 renal
[5] = system: LOX IMVI melanoma
[6] = system: CAKI-1 renal
[7] = system: M19-MEL melanoma
[8] = system: IGROV1 ovarian
[9] = system: XF 498 CNS
[10] = system: MOLT-4 leukemia
[11] = system: HOP-18 NSCLC
[12] = system: OVCAR-4 ovarian
[13] = system: KM12 colon
[14] = system: SNB-78 CNS
[15] = system: A549 NSCLC
[16] = system: SW-620 colon
[17] = system: SF-539 CNS
[18] = system: HCT-15 colon
[19] = system: TK-10 renal
[20] = system: ACHN renal
[21] = system: SN12C renal
[22] = system: DMS 273 small cell lung
[23] = system: 786-0 renal
[24] = system: SNB-75 CNS
[25] = system: SK-MEL-2 melanoma
[26] = system: HOP-92 NSCLC
[27] = system: HCC-2998 colon
[28] = system: OVCAR-3 ovarian
[29] = system: OVCAR-8 ovarian
[30] = system: UACC-62 melanoma
[31] = system: M14 melanoma
[32] = system: A498 renal
[33] = system: RXF-631 renal
[34] = system: SF-268 CNS
[35] = system: UACC-257 melanoma
[36] = system: SK-MEL-5 melanoma
[37] = system: MALME-3M melanoma
[38] = system: KM20L2 colon
[39] = system: EKVX NSCLC
[40] = system: RPMI-8226 leukemia
[41] = system: NCI-H226 lung
[42] = system: SNB-19 CNS
[43] = system: HCT-116 colon
[44] = system: SF-295 CNS
[45] = system: CCRF-CEM leukemia
[46] = system: DLD-1 colon
[47] = system: UO-31 renal
[48] = system: HL-60(TB) leukemia
[49] = system: SR leukemia
[50] = system: SK-MEL-28 melanoma
[51] = system: DMS 114 small cell lung
[52] = system: NCI-H23 lung
[53] = system: NCI-H460 lung
[54] = system: HT29 colon
[55] = system: OVCAR-5 ovarian
[56] = system: COLO 205 colon
[57] = system: U251 CNS
[58] = system: NCI-H522 lung
[59] = system: SK-OV-3 ovarian

`O=c1/c(=C/c2ccccc2[N+](=O)[O-])sc2nnc(-c3cccnc3)n12` gave a TGI [1] of over 100 µM, a TGI [2] of over 100 µM and a TGI [3] of over 100 µM. For the same compound, the TGI [4] was over 100 µM, the TGI [5] was over 100 µM and the TGI [6] was 2.78 µM. The TGI [7] was over 100 µM, the TGI [8] was over 100 µM and the TGI [9] was over 100 µM. For the same compound, the TGI [10] was over 100 µM, the TGI [11] was over 100 µM and the TGI [12] was over 100 µM. It also gave a TGI [13] of over 100 µM, a TGI [14] of over 100 µM and a TGI [15] of over 100 µM. It also gave a TGI [16] of 24.5 µM, a TGI [17] of over 100 µM and a TGI [18] of over 100 µM. The TGI [19] was over 100 µM, the TGI [20] was over 100 µM and the TGI [21] was over 100 µM. For the same compound, the TGI [22] was over 100 µM, the TGI [23] was over 100 µM and the TGI [24] was over 100 µM. For the same compound, the TGI [25] was over 100 µM, the TGI [26] was over 100 µM and the TGI [27] was over 100 µM. For the same compound, the TGI [28] was over 100 µM, the TGI [29] was over 100 µM and the TGI [30] was over 100 µM. For the same compound, the TGI [31] was over 100 µM, the TGI [32] was over 100 µM and the TGI [33] was over 100 µM. For the same compound, the TGI [34] was over 100 µM, the TGI [35] was over 100 µM and the TGI [36] was over 100 µM. The TGI [37] was over 100 µM, the TGI [38] was over 100 µM and the TGI [39] was over 100 µM. It also gave a TGI [40] of over 100 µM, a TGI [41] of over 100 µM and a TGI [42] of 32.1 µM. For the same compound, the TGI [43] was over 100 µM, the TGI [44] was over 100 µM and the TGI [45] was over 100 µM. For the same compound, the TGI [46] was over 100 µM, the TGI [47] was over 100 µM and the TGI [48] was over 100 µM. It also gave a TGI [49] of over 100 µM, a TGI [50] of over 100 µM and a TGI [51] of over 100 µM. For the same compound, the TGI [52] was over 100 µM, the TGI [53] was over 100 µM and the TGI [54] was over 100 µM. It also gave a TGI [55] of over 100 µM.
Compound `COc1cc2oc(-c3ccc(O)cc3)cc(=O)c2c(O)c1C1OC(CO)C(O)C(O)C1O` (stereo not drawn) has a TGI [1] of over 100 µM, a TGI [2] of over 100 µM and a TGI [3] of over 100 µM. For the same compound, the TGI [5] was over 100 µM, the TGI [6] was over 100 µM and the TGI [7] was over 100 µM. For the same compound, the TGI [8] was over 100 µM, the TGI [9] was over 100 µM and the TGI [10] was over 100 µM. It also gave a TGI [11] of over 100 µM, a TGI [12] of over 100 µM and a TGI [13] of over 100 µM. It also gave a TGI [14] of over 100 µM, a TGI [15] of over 100 µM and a TGI [16] of over 100 µM. It also gave a TGI [17] of over 100 µM, a TGI [18] of over 100 µM and a TGI [19] of over 100 µM. It also gave a TGI [20] of over 100 µM, a TGI [21] of over 100 µM and a TGI [22] of over 100 µM. The TGI [23] was over 100 µM, the TGI [24] was over 100 µM and the TGI [25] was over 100 µM. It also gave a TGI [56] of over 100 µM, a TGI [27] of over 100 µM and a TGI [28] of over 100 µM. It also gave a TGI [29] of over 100 µM, a TGI [30] of over 100 µM and a TGI [31] of over 100 µM. The TGI [32] was over 100 µM, the TGI [34] was over 100 µM and the TGI [57] was over 100 µM. It also gave a TGI [35] of over 100 µM, a TGI [36] of over 100 µM and a TGI [37] of over 100 µM. The TGI [38] was over 100 µM, the TGI [39] was over 100 µM and the TGI [58] was over 100 µM. It also gave a TGI [40] of over 100 µM, a TGI [41] of over 100 µM and a TGI [42] of over 100 µM. The TGI [43] was over 100 µM, the TGI [59] was over 100 µM and the TGI [44] was over 100 µM. It also gave a TGI [45] of over 100 µM, a TGI [46] of over 100 µM and a TGI [47] of over 100 µM. For the same compound, the TGI [48] was over 100 µM, the TGI [49] was over 100 µM and the TGI [50] was over 100 µM. The TGI [51] was over 100 µM, the TGI [52] was over 100 µM and the TGI [53] was over 100 µM. For the same compound, the TGI [54] was over 100 µM and the TGI [55] was over 100 µM.
`CC(=O)NNc1nc(C)c(C(=O)NNC(=O)C(=O)Nc2ccc([N+](=O)[O-])cc2[N+](=O)[O-])s1` was tested, and the TGI [1] was over 100 µM, the TGI [2] was over 100 µM and the TGI [3] was over 100 µM. The TGI [4] was over 100 µM, the TGI [5] was over 100 µM and the TGI [6] was over 100 µM. It also gave a TGI [8] of over 100 µM, a TGI [9] of over 100 µM and a TGI [10] of over 100 µM. It also gave a TGI [12] of over 100 µM, a TGI [13] of over 100 µM and a TGI [14] of over 100 µM. It also gave a TGI [15] of over 100 µM, a TGI [16] of over 100 µM and a TGI [17] of over 100 µM. It also gave a TGI [18] of over 100 µM, a TGI [19] of over 100 µM and a TGI [20] of over 100 µM. The TGI [21] was over 100 µM, the TGI [22] was over 100 µM and the TGI [24] was over 100 µM. For the same compound, the TGI [25] was over 100 µM, the TGI [26] was over 100 µM and the TGI [56] was over 100 µM. It also gave a TGI [27] of over 100 µM, a TGI [29] of over 100 µM and a TGI [30] of over 100 µM. For the same compound, the TGI [31] was over 100 µM, the TGI [32] was over 100 µM and the TGI [33] was over 100 µM. For the same compound, the TGI [34] was over 100 µM, the TGI [57] was over 100 µM and the TGI [35] was over 100 µM. It also gave a TGI [36] of over 100 µM, a TGI [38] of over 100 µM and a TGI [39] of over 100 µM. The TGI [58] was over 100 µM, the TGI [40] was over 100 µM and the TGI [41] was over 100 µM. For the same compound, the TGI [42] was over 100 µM, the TGI [43] was over 100 µM and the TGI [59] was over 100 µM. It also gave a TGI [44] of over 100 µM, a TGI [45] of 79.6 µM and a TGI [46] of over 100 µM. For the same compound, the TGI [47] was over 100 µM, the TGI [48] was over 100 µM and the TGI [49] was over 100 µM. For the same compound, the TGI [50] was over 100 µM, the TGI [51] was over 100 µM and the TGI [52] was over 100 µM. It also gave a TGI [53] of over 100 µM, a TGI [54] of over 100 µM and a TGI [55] of over 100 µM.
`Cc1nc2ccccc2nc1CC(=O)C(=O)Nc1ccc(Cl)cc1Cl` was tested, and the TGI [1] was over 100 µM, the TGI [2] was over 100 µM and the TGI [3] was over 100 µM. The TGI [4] was over 100 µM, the TGI [5] was over 100 µM and the TGI [6] was over 100 µM. The TGI [7] was over 100 µM, the TGI [8] was over 100 µM and the TGI [10] was over 100 µM. The TGI [12] was over 100 µM, the TGI [13] was over 100 µM and the TGI [14] was over 100 µM. The TGI [15] was over 100 µM, the TGI [16] was over 100 µM and the TGI [17] was over 100 µM. For the same compound, the TGI [18] was over 100 µM, the TGI [19] was over 100 µM and the TGI [20] was over 100 µM. For the same compound, the TGI [21] was over 100 µM, the TGI [22] was over 100 µM and the TGI [23] was over 100 µM. It also gave a TGI [24] of over 100 µM, a TGI [25] of over 100 µM and a TGI [26] of over 100 µM. For the same compound, the TGI [56] was over 100 µM, the TGI [27] was over 100 µM and the TGI [28] was over 100 µM. It also gave a TGI [29] of over 100 µM, a TGI [30] of over 100 µM and a TGI [31] of over 100 µM. It also gave a TGI [32] of over 100 µM, a TGI [33] of over 100 µM and a TGI [34] of over 100 µM. It also gave a TGI [57] of over 100 µM, a TGI [35] of over 100 µM and a TGI [36] of over 100 µM. For the same compound, the TGI [37] was over 100 µM, the TGI [38] was over 100 µM and the TGI [39] was over 100 µM. For the same compound, the TGI [58] was over 100 µM, the TGI [40] was over 100 µM and the TGI [42] was over 100 µM. The TGI [43] was over 100 µM, the TGI [59] was over 100 µM and the TGI [44] was over 100 µM. It also gave a TGI [45] of over 100 µM, a TGI [46] of over 100 µM and a TGI [47] of over 100 µM. For the same compound, the TGI [48] was over 100 µM, the TGI [50] was over 100 µM and the TGI [52] was over 100 µM. For the same compound, the TGI [53] was over 100 µM and the TGI [55] was over 100 µM.
